PMC11796317, “Fragment Discovery by X‐Ray Crystallographic Screening Targeting the CTP Binding Site of Pseudomonas Aeruginosa IspD” (Angewandte Chemie (International Ed. in English), 2025)

T1: PaIspD (Pseudomonas aeruginosa, UniProt P57707)
T1 construct: His6 (N, cleaved yes); made in house; host or cells: Escherichia coli BL21 (DE3), pET28
T1 sequence (P57707 1-234): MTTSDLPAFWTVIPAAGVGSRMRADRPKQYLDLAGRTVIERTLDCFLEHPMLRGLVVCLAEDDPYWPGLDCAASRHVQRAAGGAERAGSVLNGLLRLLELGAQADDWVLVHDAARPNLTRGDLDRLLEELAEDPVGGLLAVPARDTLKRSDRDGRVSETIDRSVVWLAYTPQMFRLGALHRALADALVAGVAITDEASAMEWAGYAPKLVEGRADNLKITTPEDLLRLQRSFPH

B1: PaIspD (Pseudomonas aeruginosa PAO1) (protein)
chain: T1 sequence (P57707 1-234)
notes: His6 (N, cleaved yes); made in house; host or cells: Escherichia coli BL21 (DE3), pET28

Columns and labels:
[1] = target: T1, PaIspD; test: Determination of enzyme kinetics (Michaelis constants of substrates, LC-MS); assay type: biochemical; details: substrate of PaIspD; 50 nM PaIspD, 37 °C, 40 minutes
Method: (§1) Determination of enzyme kinetics
(§2) Table S1. Michaelis constants for MEP and CTP of PaIspD.
(§3) Substrate Km (mM) Vmax (AU/min-1)
(§4) Determination of enzyme kinetics. The assay was conducted as published before. To determine the Km values for CTP and MEP with PaIspD, substrate concentrations (0.016–2 mM) were prepared in a 96-well plate. Each well contained 100 μL of reaction mix with Buffer A (100 mM Tris-HCl pH 7.6, 1 mM DTT, 1 mM MgCl2) and 50 nM PaIspD. Serial dilutions of CTP or MEP were performed, and reactions were initiated by adding Buffer B (100 mM Tris-HCl pH 7.6, 1 mM DTT, 1 mM MEP or CTP). Plates were incubated at 37 °C for 40 minutes, denatured at 95 °C for 5 minutes, and centrifuged at 4000 rpm at 4 °C. Supernatants (10 μL) were mixed with an 190 μL ice-cold 3:1:1 ACN, isopropanol, water mixture containing 100 nM 4-methyl-1-oxo-1-(p-tolylamino)pentane-2-sulfonic acid, adenylyl-imidodiphosphate and adenosine-5′- [(α,β)-methyleno]triphosphate as internal standard. After centrifugation at 4000 rpm at 4 °C for 5 min, a 50 μL aliquot was transferred to an LC-MS plate for analysis. Peak areas were used to calculate Michaelis–Menten kinetics using GraphPad Prism v9. Measurements were done in duplicates and repeated in two independent experiments.
Figure S1: Kinetic parameters of PaIspD substrates (MEP, left and CTP, right). Each data point reflects the mean ± SD obtained from two-independent […]

[2] = target: T1, PaIspD; test: Microscale thermophoresis (MST) with dyed PaIspD; assay type: binding
Method: The microscale thermophoresis (MST) (Serial no. 201709-BR-N024, Monolith NT.115 Micro Scale Thermophoresis, NanoTemper Technologies GmbH.) was performed using dyed PaIspD, labeled according to the standard protocol from the manufacturer NanoTemper Technologies GmbH Protein Labeling Kit Red-NHS, 2nd Generation. A 2 mM ligand solution containing 10% DMSO was prepared (Solution I). A 200 µl solution of 10% DMSO containing buffer solution was prepared (Solution II). The buffer used was HEPES (50 mM), MgCl2 (5 mM) and Tween (0.05%) at pH 7.6 for all compounds. To PCR tubes 2-16, 10 µl of solution II was added. To tube 1, 20 µl of solution I was added. 10 µl from tube 1 was add to tube 2 and mixed. This was continued until tube 16. To each tube, 10 µL of the protein dye mixture was added and mixed. The mixture was allowed to incubate at room temperature for 5 minutes. Non-hydrophobic capillary tubes were used for measurement. Each sample was measured and analyzed in MO Control version 1.6.

[3] = target: T1, PaIspD; test: Fluorescence quenching (PaIspD); assay type: binding
Method: Fluorescence quenching (PaIspD)
Quenching is expressed as (I0 – I) / I0 with I0 the intensity (at 332 nm) of fluorescence in absence of compound and I the intensity of fluorescence upon addition of compound. Inset, fluorescence emission spectra in the presence of increasing concentrations of compound. The concentration of PaIspD was kept at 2 µM during the assay, the compounds were tested in concentration ranges given below. The excitation wavelength was set at 286 nm, emission spectra were recorded between 300 nm and 380 nm. The data were fitted using Qtiplot software (qtiplot.com). A least square fit to a simple bimolecular equilibrium was used to estimate the Kd values. Each measurement was reproduced two times. The measurements were carried out in the following buffer: 50 mM Tris-Cl pH = 8, 50 mM NaCl, 1mM MgCl2.
Table S1. Concentration ranges used to determine Kd during the Fluorescence quenching assay.

[4] = target: T1, PaIspD; test: 1H-STD NMR and competition STD NMR with CTP; assay type: binding
Source text: To further validate the occurrence of interactions taking place between the fragment and PaIspD, we referred to ^1H‐STD NMR spectroscopy, a commonly used technique for this purpose.[10, 11] We conducted this experiment in a HEPES buffer in D2O with a 100‐fold excess of 2 compared to PaIspD. In the corresponding difference spectrum, we identified all proton signals previously observed in the ^1H NMR spectrum of 2 (see Figure S2 and S3 in the Supporting Information). […] We further noted the magnitude of amplification of the signals as the efficiency of saturation transfer scales with distance, enabling us to gain an idea about the proximity of each proton to the protein surface.[12] Among all protons, those in position iii (Figure 4) clearly received a surplus in saturation transfer relative to the other ones, whereas the protons positioned on the pyridyl ring (i, Figure 4) and the protons in position ii (Figure 4) received both less amplification with the latter receiving the least amount (Figure 4). […]
The 1H-STD-NMR experiment was recorded at 25 °C with 512 scans on a Bruker Avance Neo 500 MHz spectrometer with prodigy cryoprobe system. […]

[5] = substrate: C[C@](O)(CO)[C@H](O)COP(=O)(O)O; test: Determination of enzyme kinetics (Michaelis constants of substrates, LC-MS); assay type: biochemical, Pseudomonas aeruginosa; details: other: substrate of PaIspD, 50 nM PaIspD, 37 °C, 40 minutes, pH 7.6
Method: as §1, §2, §3, §4
Figure S1: Kinetic parameters of PaIspD substrates (MEP, left and CTP, right). […]

[6] = -log KD, supplement sheet, CORRECTED VALUES
[7] = -log KD, supplement sheet, PUBLISHED VALUES
[8] = kd (M), supplement sheet, CORRECTED VALUES
[9] = kd (µM), supplement sheet, CORRECTED VALUES, MST Kd
[10] = supplement sheet, CORRECTED VALUES
[11] = supplement sheet, PUBLISHED VALUES
[12] = MST Kd, n=2, mean±SD, HEPES 50 mM, MgCl2 5 mM, Tween 0.05%, pH 7.6

Molecule | Km [1] | Vmax [1] | Kd [2, 6] | Kd [2, 7] | Kd [2, 8] | Kd [2, 9] | LE [2, 10] | LLE [2, 11] | Kd [3] | Competition STD NMR with CTP ([4]; 1 mM 2, 10 mM CTP, 10 µM PaIspD) | 1H-STD NMR interaction with PaIspD ([4]; HEPES buffer in D2O, 100-fold excess of 2 compared to PaIspD) | Kd [2, 12] | Km [5]
Nc1ccn([C@@H]2O[C@H](COP(=O)(O)OP(=O)(O)OP(=O)(O)O)[C@@H](O)[C@H]2O)c(=O)n1 [CTP] | 200 ± 100 µM | 0.30 ± 0.01 AU/min-1 |  |  |  |  |  |  |  |  |  |  | 
CN1Cc2cccnc2C1=O [Compound 2] |  |  | 0.000939 M | 0.000939 M | 0.000939 M | 0.000939 M | 0.377 | -1.358 | 977 ± 59 µM | STD signals of 2 disappeared | came into close proximity of the protein |  | 
CN1CCC(N2Cc3cccnc3C2=O)CC1 [Compound 3] |  |  | 0.000186 M | 0.000186 M | 0.000186 M | 0.000186 M | 0.3006 | -0.7773 | 879 ± 64 µM |  |  | 0.000186 ± 7e-06 M | 
O=C1c2ncccc2CN1Cc1ccccc1 [Compound 4] |  |  | 0.000133 M | 0.000133 M | 0.000133 M | 0.000133 M | 0.3124 | -0.9699 | 391 ± 35 µM |  |  | 0.000133 ± 1.2e-05 M | 
O=C1c2ncccc2CN1CCN1CCOCC1 [Compound 5] |  |  | 0.000491 M | 0.000491 M | 0.000491 M | 0.000491 M | 0.2518 | -0.7374 |  |  |  | 0.000491 ± 2e-06 M | 
O=C1c2ncccc2CN1CCc1c[nH]c2ccccc12 [Compound 6] |  |  | 0.000208 M | 0.000208 M | 0.000208 M | 0.000208 M | 0.2402 | -0.7939 | 332 ± 22 µM |  |  | 0.000208 ± 7e-06 M | 
COC(=O)N(C)C1c2cccnc2C(=O)N1C (centres unmarked) [Compound 7] |  |  | 0.000454 M | 0.000454 M | 0.000454 M | 0.000454 M | 0.2694 | -0.728 |  |  |  | 0.000454 ± 2.7e-05 M | 
CCC(=O)N(C)C1c2cccnc2C(=O)N1C (centres unmarked) [Compound 8] |  |  |  |  |  |  |  |  | 248 ± 15 µM |  |  |  | 
CCC(CC)C(=O)N(C)C1c2cccnc2C(=O)N1C (centres unmarked) [Compound 9] |  |  | 0.000536 M | 0.000536 M | 0.000536 M | 0.000536 M | 0.2241 | -0.9347 |  |  |  | 0.000536 ± 4.7e-05 M | 
CN(C(=O)c1ccncc1)C1c2cccnc2C(=O)N1C (centres unmarked) [Compound 10] |  |  | 0.000209 M | 0.000209 M | 0.000209 M | 0.000209 M | 0.2401 | -0.6357 | 310 ± 28 µM |  |  | 0.000209 ± 4e-06 M | 
CN(C(=O)c1ccon1)C1c2cccnc2C(=O)N1C (centres unmarked) [Compound 11] |  |  | 0.000502 M | 0.000502 M | 0.000502 M | 0.000502 M | 0.226 | -0.6167 | 301 ± 16 µM |  |  | 0.000502 ± 5.6e-05 M | 
CN1C(=O)c2ncccc2C1N(C)C(=O)N1CCOCC1 (centres unmarked) [Compound 12] |  |  | 0.000239 M | 0.000239 M | 0.000239 M | 0.000239 M | 0.2363 | -0.5431 | 371 ± 42 µM |  |  | 0.000239 ± 6e-06 M | 
C[C@](O)(CO)[C@H](O)COP(=O)(O)O [MEP, 2‐C‐methylerythritol‐D‐erythritol‐4‐phosphate] |  | 0.30 ± 0.0 AU/min-1 |  |  |  |  |  |  |  |  |  |  | 
B1 |  |  |  |  |  |  |  |  |  |  |  |  | 210 ± 100 µM
